In experiment [1] the test system is GBM4 cells. The experiment is described as follows: GBM4 viability assay (Cell Titer Glo luminescence). The conditions noted are these: 72 h; human glioblastoma neurosphere cells GBM4, 3 days incubation at 37° C., inhibition of cell growth by Cell Titer Glo luminescence. The class given is cell-based. On the procedure:
(§1) Cell culture medium was prepared from a NSA proliferation kit (Neurocult) and NeuroCult supplements (Stemcell Tech Cat. #05751) and treated with 20 μL of 10 μg/mL rh EGF, 10 μL of 10 μg/mL rh bFGF and 10 μL of 0.2% Heparin. In this medium, human glioblastoma cells were cultured in ultra-low attachment tissue culture flasks until 1×10^6 cells ml was achieved (GBM4 and GBM8 are distinct neuro sphere cell cultures derived from these human patient tissues). GBM4 and GBM8 cells were dissociated and 10 mL of media containing 4000 human glioblastoma cells per 90 uL were transferred to an ultra-low binding 96-well plate and incubated at 37° C. overnight. On the following day, 10 μL of a 1% DMSO solution of test compound in assay medium was added to wells containing the cell suspension and the mixture incubated at 37° C. for 3 days. At this time, the plate was removed from the incubator and allowed to reach room temperature. After about 30 minutes, 50 μL of Cell Titer Glo solution was added to each well and the plate shaken for 1 minute at low speed. After 10 minutes luminescence was recorded using a Tecan Safire2 reader.
(§2) Reduction in luminescence compared to DMSO only control wells was used to determine the percentage inhibition of cell growth. IC50s were calculated using the % inhibition of luminescence for serial dilutions of compounds fitted to a 4-parameter fit within the Prism (San Diego) curve fitting program.

For experiment [2], the system named is GBM8 cells. The experiment is described as follows: GBM8 viability assay (Cell Titer Glo luminescence). The class given is cell-based. The note with it: 72 h; human glioblastoma neurosphere cells GBM8, 3 days incubation at 37° C., inhibition of cell growth by Cell Titer Glo luminescence; read-out: FBM8 (IC50). On the procedure: as §1, §2

Where only a bound is given, the exact number is not on record here.

Turning to `CCN1CCCC(Nc2cc(C)nc(NC(=N)N(C)c3ccc(Cl)c(Cl)c3)n2)C1` (stereo not drawn) [Compound 21, 2-[3-(3,4-dichlorophenyl)-3-methylguanidino]-4-[1-ethyl-3-piperidylamino]-6-methylpyrimidine], the figures for the concentration for half-maximal inhibition (IC50) in experiment [1] and in experiment [2] were 10 to 30 µM and above 30 µM, respectively.
For `Cc1cc(Oc2cccnc2)nc(NC(=N)Nc2ccc(Cl)c(Cl)c2)n1` [Compound 13, 1-(3,4-dichlorophenyl)-3-[6-methyl-4-(3-pyridyloxy)-2-pyrimidinyl]guanidine] the same measures were 10 to 30 µM and above 30 µM.
On the same counts, the results for `Cc1cc(NC2CCOCC2)nc(NC(=N)Nc2ccc(Cl)c(Cl)c2)n1` [Compound 16, 2-[3-(3,4-dichlorophenyl)guanidino]-6-methyl-4-(tetrahydro-2H-pyran-4-ylamino)-pyrimidine] are 10 to 30 µM and below 10 µM.
As to `Cc1cc(Oc2ccncc2)nc(NC(=N)Nc2ccc(Cl)c(Cl)c2)n1` [Compound 8, 1-(3,4-dichlorophenyl)-3-[6-methyl-4-(4-pyridyloxy)-2-pyrimidinyl]guanidine], the concentration for half-maximal inhibition (IC50) in experiment [1] and in experiment [2] was above 30 µM in each case.
With `CCN1CCC(Nc2cc(C)nc(NC(=N)Nc3ccc(Cl)c(Cl)c3)n2)CC1` [Compound 26, 2-[3-(3,4-dichlorophenyl)guanidino]-4-(1-ethyl-4-piperidylamino)-6-methylpyrimidine], the IC50 in experiment [1] and in experiment [2] was below 10 µM in each case.
Turning to `Cc1cc(N2CCN(C)CC2)nc(NC(=N)Nc2ccc(Cl)c(Cl)c2)n1` [Compound 27, 1-(3,4-dichlorophenyl)-3-[6-methyl-4-(4-methyl-1-piperazinyl)-2-pyrimidinyl]-guanidine], the IC50 in experiment [1] is 10 to 30 µM; in experiment [2], below 10 µM.
In the case of `Cc1cc(OC2CCCNC2)nc(NC(=N)Nc2ccc(Cl)c(Cl)c2)n1` (stereo not drawn) [Compound 17, 1-(3,4-dichlorophenyl)-3-[6-methyl-4-(3-piperidyloxy)-2-pyrimidinyl]guanidine], the IC50 in experiment [1] was 10 to 30 µM; in experiment [2] it was below 10 µM.
Regarding `C/N=C(\Nc1ccc(Cl)c(Cl)c1)Nc1nc(C)cc(NCCCN(C)C)n1` [Compound 33, 1-{2-[3-(3,4-Dichlorophenyl)-2-methylguanidino]-6-methyl-4-pyrimidinylamino}-3-(dimethylamino)propane], the IC50 in experiment [2] was above 30 µM.
For `CCN1CCC[C@@H](Nc2cc(C)nc(NC(=N)Nc3ccc(Cl)c(Cl)c3)n2)C1` [Compound 12, 4-[(3R)-1-ethyl-3-piperidylamino]-2-[3-(3,4-dichlorophenyl)guanidino]-6-methyl-pyrimidine], the IC50 in experiment [1] and in experiment [2] was below 10 µM each time.
Regarding `Cc1cc(NC2CCNCC2)nc(NC(=N)Nc2ccc(Cl)c(Cl)c2)n1` [Compound 9, 2-[3-(3,4-dichlorophenyl)guanidino]-6-methyl-4-(4-piperidylamino)pyrimidine], the IC50 in experiment [1] and in experiment [2] was above 30 µM each time.
`Cc1cc(Nc2cccnc2)nc(NC(=N)Nc2ccc(Cl)c(Cl)c2)n1` [Compound 14, 2-[3-(3,4-dichlorophenyl)guanidino]-6-methyl-4-(3-pyridylamino)pyrimidine]: the IC50 in experiment [1] and in experiment [2] was below 10 µM each time.
Consider `Cc1cc(/N=C(/Nc2ccc(Cl)c(Cl)c2)N(C)C)nc(NCCCN(C)C)c1` [Compound 39, 1-{6-[3-(3,4-Dichlorophenyl)-1,1-dimethylguanidino]-4-methyl-2-pyridylamino}-3-(dimethylamino)propane], for which the IC50 in experiment [2] was above 30 µM.
Turning to `Cc1cc(N2CCOCC2)nc(NC(=N)Nc2ccc(Cl)c(Cl)c2)n1` [Compound 29, 1-(3,4-dichlorophenyl)-3-(4-methyl-6-morpholino-2-pyrimidinyl)guanidine], the IC50 in experiment [1] and in experiment [2] was below 10 µM in each case.
Turning to `Cc1cc(N[C@@H]2CCCNC2)nc(NC(=N)Nc2ccc(Cl)c(Cl)c2)n1` [Compound 11, (R)-1-(3,4-dichlorophenyl)-3-(4-methyl-6-(piperidin-3-ylamino)pyrimidin-2-yl)guanidine], the IC50 in experiment [1] and in experiment [2] was below 10 µM throughout.
Consider `CCN1CCC(Oc2cc(C)nc(NC(=N)Nc3ccc(Cl)c(Cl)c3)n2)CC1` [Compound 25, 1-(3,4-dichlorophenyl)-3-[4-(1-ethyl-4-piperidyloxy)-6-methyl-2-pyrimidinyl]-guanidine], for which the IC50 in experiment [1] and in experiment [2] was 10 to 30 µM throughout.
Take `CCN1CCC[C@H](Nc2cc(C)nc(NC(=N)Nc3ccc(Cl)c(Cl)c3)n2)C1` [Compound 24, (S)-1-(3,4-dichlorophenyl)-3-(4-(1-ethylpiperidin-3-ylamino)-6-methylpyrimidin-2-yl)guanidine]: the IC50 in experiment [1] and in experiment [2] was below 10 µM throughout.
With `Cc1cc(NCCCN(C)C)nc(/N=C(/Nc2ccc(Cl)c(Cl)c2)N(C)C)n1` [Compound 34, 1-{2-[3-(3,4-Dichlorophenyl)-1,1-dimethylguanidino]-6-methyl-4-pyrimidinylamino}-3-(dimethylamino)propane], the IC50 in experiment [2] was above 30 µM.
For `Cc1cc(N[C@H]2CCCNC2)nc(NC(=N)Nc2ccc(Cl)c(Cl)c2)n1` [Compound 10, (5)-1-(3,4-dichlorophenyl)-3-(4-methyl-6-(piperidin-3-ylamino)pyrimidin-2-yl)guanidine], the IC50 in experiment [1] and in experiment [2] was below 10 µM throughout.
`C/N=C(\Nc1ccc(Cl)c(Cl)c1)Nc1cc(C)cc(NCCCN(C)C)n1` [Compound 35, 1-{6-[3-(3,4-Dichlorophenyl)-2-methylguanidino]-4-methyl-2-pyridylamino}-3-(dimethylamino)propane]: in experiment [2], the 50% inhibitory concentration (IC50) lay in the range of 10 to 30 µM.
For the molecule `CCN1CCCC(Nc2cc(C)nc(NC(=N)Nc3ccc(Cl)c(Cl)c3)n2)C1` (racemic) [Compound 7, (±)-2-[3-(3,4-dichlorophenyl)guanidino]-4-(1-ethyl-3-piperidylamino)-6-methylpyrimidine], the IC50 in experiment [1] and in experiment [2] was below 10 µM each time.
Turning to `Cc1cc(NCCCN(C)C)nc(NC(=S)Nc2ccc(Cl)c(Cl)c2)n1` [Compound 31a, 1-{2-[3-(3,4-Dichlorophenyl)thioureido]-6-methyl-4-pyrimidinylamino}-3-(dimethylamino)propane], the IC50 in experiment [2] is below 10 µM.
Same read-out and setting: for `Cc1cc(NCCCN(C)C)nc(N/C(=N/C#N)Nc2ccc(Cl)c(Cl)c2)n1` [Compound 32, 1-(3,4-Dichlorophenyl)-3-{4-[3-(dimethylamino)propylamino]-6-methyl-2-pyrimidinyl}-2-guanidinecarbonitrile] the value was below 10 µM.
`Cc1cc(N(C)C)nc(NC(=N)Nc2ccc(Cl)c(Cl)c2)n1` [Compound 28, (N-methyl{2-[3-(3,4-dichlorophenyl)guanidino]-6-methyl-4-pyrimidinyl}amino)-methane]: the IC50 in experiment [1] and in experiment [2] was below 10 µM in each case.
As to `Cc1cc(NC2CCCCC2)nc(NC(=N)Nc2ccc(Cl)c(Cl)c2)n1` [Compound 15, 4-(cyclohexylamino)-2-[3-(3,4-dichlorophenyl)guanidino]-6-methylpyrimidine], the concentration for half-maximal inhibition (IC50) in experiment [1] and in experiment [2] was below 10 µM in each case.

The values are drawn from patent US10227333B2, “Inhibition of OLIG2 activity” (Curtana Pharmaceuticals, Inc., priority 2015, dated 2019).
